Source: patent publication US20230120597A1, “CO-AGONISTS AT GLP-1 AND GIP RECEPTORS SUITABLE FOR ORAL DELIVERY” (Novo Nordisk A/S, priority 2020, published 2023)
Marks after values point to notes of the source that are not given here. Starred links: 1 amine or outer side, 2 acyl side, 3 side chain; linkers in the order of their positions; H or OH if unused. Non-standard residues stand in square brackets, D forms with d. Residues, ends and D or L forms follow the SMILES beside them. Groups on a side chain read outwards from the residue. *: point of attachment. C18 diacid = O=C(O)CCCCCCCCCCCCCCCCC(=O)*; γGlu = O=C(O)[C@H](CCC(=O)[*:2])N[*:1]; εLys = N[C@@H](CCCCN[*:1])C(=O)[*:2]; AEEA = NCCOCCOCC(=O)O; Aib = CC(C)(N)C(=O)O

Experiment: Pharmacokinetic study in dogs, oral dosing of tablet compositions with SNAC
Assay type: in vivo, Beagle dogs
Description: The purpose of this example is to determine the half-life and plasma exposure in vivo of the compounds of the present invention after p.o. administration to beagle dogs, i.e. the terminal half-life and concentration of test substance that reaches circulation with time. This is done in a pharmacokinetic (PK) study, where these parameters of the compound in question are determined. By terminal half-life is generally meant the period of time it takes to halve a certain plasma concentration, measured after the initial distribution phase.
The amount of SNAC in the tablet composition was 100-300 mg, the amount of magnesium stearate in the tablet composition was 7.7 mg, and the target amount of each test substance in the tablet composition was 3-4 mg.
Male beagle dogs, 1-7 years of age and weighing 9-17 kg during the study period, were included in the study. The dogs were dosed in a fasting state. The dogs were group housed in pens (12 hours light: 12 hours dark), and fed individually and restrictedly once daily with Royal Canin Medium Adult dog food (Royal Canin Products, China Branch, or Brogaarden A/S, Denmark). The dogs were used for repeated PK studies with a suitable wash-out period between successive dosing. An appropriate acclimatization period was given prior to initiation of the first PK study. All handling, dosing, and blood sampling of the animals were performed by trained and skilled staff. Before the studies, the dogs were fasted overnight and from 0 to 4 hours after dosing. The dogs were restricted to water 1 hour before dosing until 4 hours after dosing, but otherwise had ad libitum access to water during the whole period.
The compositions were administered by a single oral dosing to the dogs in groups of 6-8 dogs. […] The mouth was then closed, and 10 mL of tap water was given by syringe or gavage to facilitate swallowing of the tablet.
One blood sample was drawn before dosing, and additional samples were drawn at predefined time points after dosing for up to 240 hours, such as up to 10 hours, to adequately cover the full plasma concentration-time absorption profile of the test substance. For each blood sample time point, approximately 0.8 mL of whole blood was collected in a 1.5 mL EDTA-coated tube, which was gently turned to mix the sample with EDTA. Blood samples were collected in EDTA buffer (8 mM) and then centrifuged at 4° C. 2000 g for 10 minutes. Plasma was pipetted into Micronic tubes on dry ice, and kept at −20° C. or lower until analysis. Blood samples were taken as appropriate, for example from a venflon in the cephalic vein in the front leg for the first 2 hours and then with syringe from the jugular vein for the rest of the time points. The first few drops were allowed to drain from the venflon to avoid heparin saline from the venflon in the sample.
All blood samples were collected into test tubes containing EDTA for stabilisation and kept on ice until centrifugation. Plasma was separated from whole blood by centrifugation and the plasma was stored at −20° C. or lower until analysis.
The plasma was analysed for test substance using LC-MS (Liquid Chromatography-Mass Spectrometry) as known to the person skilled in the art. […] RP-HPLC separation was achieved using a linear gradient of 1:1 acetonitrile/methanol in 1% aqueous formic acid using either: a Phenomenex Onyx Monolithic C18 column (50×2.0 mm) and a flow rate of 0.8 mL/min at 30° C.; or an Agilent Poroshell 120 SB-C18 column (50×2.1 mm, 2.7 μm) at a flow rate of 0.4 mL/min at 60° C. The mass spectrometer was operated in either positive ionization SIM mode or positive ionization PRM mode.
For each individual animal, a plasma concentration-time profile was analysed by a non-compartmental model in Pharsight Phoenix WinNonLin ver.

Row | Structure (SMILES) | AUC/Dose (oral tablet, SNAC 300 mg, test substance 3 mg, Beagle dogs, arithmetic mean) | AUC/Dose (dog, in vivo, po)
1 | CC[C@H](C)[C@H](NC(=O)[C@H](Cc1ccccc1)NC(=O)[C@H](CCC(=O)O)NC(=O)[C@H](CCCNC(=N)N)NC(=O)[C@H](C)NC(=O)[C@H](C)NC(=O)[C@H](CCC(N)=O)NC(=O)[C@H](CCCCNC(=O)[C@@H](N)CCCCNC(=O)[C@@H](N)CCCCNC(=O)CC[C@H](NC(=O)CCCCCCCCCCCCCCCCC(=O)O)C(=O)O)NC(=O)[C@H](CCC(=O)O)NC(=O)[C@H](CC(C)C)NC(=O)[C@H](CC(C)C)NC(=O)[C@@H](NC(=O)[C@H](CO)NC(=O)[C@H](Cc1ccc(O)cc1)NC(=O)[C@H](CC(=O)O)NC(=O)[C@H](CO)NC(=O)[C@@H](NC(=O)[C@H](Cc1ccccc1)NC(=O)[C@@H](NC(=O)CNC(=O)[C@H](CCC(=O)O)NC(=O)C(C)(C)NC(=O)[C@@H](N)Cc1ccc(O)cc1)[C@@H](C)O)[C@@H](C)O)[C@@H](C)CC)C(=O)N[C@@H](CCC(=O)O)C(=O)N[C@@H](Cc1c[nH]c2ccccc12)C(=O)N[C@@H](CC(C)C)C(=O)N[C@@H](CC(C)C)C(=O)N[C@@H](CCCNC(=N)N)C(=O)NCC(=O)NCC(=O)N1CCC[C@H]1C(=O)N[C@@H](CCC(=O)O)C(=O)N[C@@H](CO)C(=O)NCC(=O)N[C@@H](C)C(=O)N1CCC[C@H]1C(=O)N1CCC[C@H]1C(=O)N1CCC[C@H]1C(=O)N[C@@H](CO)C(=O)O [Compound No. 28] (H-Y[Aib]EGTFTSDYSILLEK([εLys-εLys-γGlu-C18 diacid])QAAREFIEWLLRGGPESGAPPPS-OH) | 18.6** kg*h/L | –
2 | CC[C@H](C)[C@H](NC(=O)[C@H](Cc1ccccc1)NC(=O)[C@H](CCC(=O)O)NC(=O)[C@H](CCC(N)=O)NC(=O)[C@H](C)NC(=O)[C@H](C)NC(=O)[C@H](CCC(N)=O)NC(=O)[C@H](CCCCNC(=O)[C@@H](N)CCCCNC(=O)[C@@H](N)CCCCNC(=O)CC[C@H](NC(=O)CCCCCCCCCCCCCCCCC(=O)O)C(=O)O)NC(=O)[C@H](CCC(=O)O)NC(=O)[C@H](CC(C)C)NC(=O)[C@H](CC(C)C)NC(=O)[C@@H](NC(=O)[C@H](CO)NC(=O)[C@H](Cc1ccc(O)cc1)NC(=O)[C@H](CC(=O)O)NC(=O)[C@H](CO)NC(=O)[C@@H](NC(=O)[C@H](Cc1ccccc1)NC(=O)[C@@H](NC(=O)CNC(=O)[C@H](CCC(=O)O)NC(=O)C(C)(C)NC(=O)[C@@H](N)Cc1ccc(O)cc1)[C@@H](C)O)[C@@H](C)O)[C@@H](C)CC)C(=O)N[C@@H](CCC(=O)O)C(=O)N[C@@H](Cc1c[nH]c2ccccc12)C(=O)N[C@@H](CC(C)C)C(=O)N[C@@H](CC(C)C)C(=O)N[C@@H](C)C(=O)NCC(=O)NCC(=O)N1CCC[C@H]1C(=O)N[C@@H](CO)C(=O)N[C@@H](CO)C(=O)NCC(=O)N[C@@H](C)C(=O)N1CCC[C@H]1C(=O)N1CCC[C@H]1C(=O)N1CCC[C@H]1C(=O)N[C@@H](CO)C(=O)O [Compound No. 29] (H-Y[Aib]EGTFTSDYSILLEK([εLys-εLys-γGlu-C18 diacid])QAAQEFIEWLLAGGPSSGAPPPS-OH) | – | 16.6** kg*h/L
3 | CC[C@H](C)[C@H](NC(=O)[C@H](Cc1ccccc1)NC(=O)[C@H](CCC(=O)O)NC(=O)[C@H](Cc1c[nH]cn1)NC(=O)[C@H](C)NC(=O)[C@H](C)NC(=O)[C@H](CCC(N)=O)NC(=O)[C@H](CCCCNC(=O)[C@@H](N)CCCCNC(=O)[C@@H](N)CCCCNC(=O)CC[C@H](NC(=O)CCCCCCCCCCCCCCCCC(=O)O)C(=O)O)NC(=O)[C@H](CCC(=O)O)NC(=O)[C@H](CC(C)C)NC(=O)[C@H](CC(C)C)NC(=O)[C@@H](NC(=O)[C@H](CO)NC(=O)[C@H](Cc1ccc(O)cc1)NC(=O)[C@H](CC(=O)O)NC(=O)[C@H](CO)NC(=O)[C@@H](NC(=O)[C@H](Cc1ccccc1)NC(=O)[C@@H](NC(=O)CNC(=O)[C@H](CCC(=O)O)NC(=O)C(C)(C)NC(=O)[C@@H](N)Cc1ccc(O)cc1)[C@@H](C)O)[C@@H](C)O)[C@@H](C)CC)C(=O)N[C@@H](CCC(=O)O)C(=O)N[C@@H](Cc1c[nH]c2ccccc12)C(=O)N[C@@H](CC(C)C)C(=O)N[C@@H](CC(C)C)C(=O)N[C@@H](C)C(=O)NCC(=O)NCC(=O)N1CCC[C@H]1C(=O)N[C@@H](CO)C(=O)N[C@@H](CO)C(=O)NCC(=O)N[C@@H](C)C(=O)N1CCC[C@H]1C(=O)N1CCC[C@H]1C(=O)N1CCC[C@H]1C(=O)N[C@@H](CO)C(=O)O [Compound No. 30] (H-Y[Aib]EGTFTSDYSILLEK([εLys-εLys-γGlu-C18 diacid])QAAHEFIEWLLAGGPSSGAPPPS-OH; N-terminus assumed) | – | 6.5 kg·h/L
4 | CC[C@H](C)[C@H](NC(=O)[C@H](Cc1ccccc1)NC(=O)[C@H](CCC(=O)O)NC(=O)[C@H](CCCNC(=N)N)NC(=O)[C@H](C)NC(=O)[C@H](C)NC(=O)[C@H](CCC(N)=O)NC(=O)[C@H](CCCCNC(=O)[C@@H](N)CCCCNC(=O)[C@@H](N)CCCCNC(=O)CC[C@H](NC(=O)CCCCCCCCCCCCCCCCC(=O)O)C(=O)O)NC(=O)[C@H](CCC(=O)O)NC(=O)[C@H](CC(C)C)NC(=O)[C@H](CC(C)C)NC(=O)[C@@H](NC(=O)[C@H](CO)NC(=O)[C@H](Cc1ccc(O)cc1)NC(=O)[C@H](CC(=O)O)NC(=O)[C@H](CO)NC(=O)[C@@H](NC(=O)[C@H](Cc1ccccc1)NC(=O)[C@@H](NC(=O)CNC(=O)[C@H](CCC(=O)O)NC(=O)C(C)(C)NC(=O)[C@@H](N)Cc1ccc(O)cc1)[C@@H](C)O)[C@@H](C)O)[C@@H](C)CC)C(=O)N[C@@H](CCC(=O)O)C(=O)N[C@@H](Cc1c[nH]c2ccccc12)C(=O)N[C@@H](CC(C)C)C(=O)N[C@@H](CC(C)C)C(=O)N[C@@H](C)C(=O)NCC(=O)NCC(=O)N1CCC[C@H]1C(=O)N[C@@H](CO)C(=O)N[C@@H](CO)C(=O)NCC(=O)N[C@@H](C)C(=O)N1CCC[C@H]1C(=O)N1CCC[C@H]1C(=O)N1CCC[C@H]1C(=O)N[C@@H](CO)C(=O)O [Compound No. 31] (H-Y[Aib]EGTFTSDYSILLEK([εLys-εLys-γGlu-C18 diacid])QAAREFIEWLLAGGPSSGAPPPS-OH; N-terminus assumed) | – | 17.9** kg*h/L
5 | CC[C@H](C)[C@H](NC(=O)[C@H](Cc1ccccc1)NC(=O)[C@H](CCC(=O)O)NC(=O)[C@H](CCCNC(=N)N)NC(=O)[C@H](C)NC(=O)[C@H](C)NC(=O)[C@H](CCC(N)=O)NC(=O)[C@H](CCCCNC(=O)COCCOCCNC(=O)COCCOCCNC(=O)CC[C@H](NC(=O)CCCCCCCCCCCCCCCCC(=O)O)C(=O)O)NC(=O)[C@H](CCC(=O)O)NC(=O)[C@H](CC(C)C)NC(=O)[C@H](CC(C)C)NC(=O)[C@@H](NC(=O)[C@H](CO)NC(=O)[C@H](Cc1ccc(O)cc1)NC(=O)[C@H](CC(=O)O)NC(=O)[C@H](CO)NC(=O)[C@@H](NC(=O)[C@H](Cc1ccccc1)NC(=O)[C@@H](NC(=O)CNC(=O)[C@H](CCC(=O)O)NC(=O)C(C)(C)NC(=O)[C@@H](N)Cc1ccc(O)cc1)[C@@H](C)O)[C@@H](C)O)[C@@H](C)CC)C(=O)N[C@@H](CCC(=O)O)C(=O)N[C@@H](Cc1c[nH]c2ccccc12)C(=O)N[C@@H](CC(C)C)C(=O)N[C@@H](CC(C)C)C(=O)N[C@@H](C)C(=O)NCC(=O)NCC(=O)N1CCC[C@H]1C(=O)N[C@@H](CO)C(=O)N[C@@H](CO)C(=O)NCC(=O)N[C@@H](C)C(=O)N1CCC[C@H]1C(=O)N1CCC[C@H]1C(=O)N1CCC[C@H]1C(=O)N[C@@H](CO)C(=O)O [Compound No. 32] (H-Y[Aib]EGTFTSDYSILLEK([AEEA-AEEA-γGlu-C18 diacid])QAAREFIEWLLAGGPSSGAPPPS-OH; N-terminus assumed) | – | 25.3* kg*h/L
